15 molecules from PMC8467647, “Identification of Small Molecule Inhibitors against Staphylococcus aureus Dihydroorotase via HTS” (International Journal of Molecular Sciences, 2021) can be followed below.

B1: SaDHOase (Staphylococcus aureus subsp. aureus COL) (protein)
chain: MKLIKNGKVLQNGELQQADILIDGKVIKQIAPAIEPSNGVDIIDAKGHFVSPGFVDVHVHLREPGGEYKETIETGTKAAARGGFTTVCPMPNTRPVPDSVEHFEALQKLIDDNAQVRVLPYASITTRQLGKELVDFPALVKEGAFAFTDDGVGVQTASMMYEGMIEAAKVNKAIVAHCEDNSLIYGGAMHEGKRSKELGIPGIPNICESVQIARDVLLAEAAGCHYHVCHVSTKESVRVIRDAKRAGIHVTAEVTPHHLLLTEDDIPGNNAIYKMNPPLRSTEDREALLEGLLDGTIDCIATDHAPHARDEKAQPMEKAPFGIVGSETAFPLLYTHFVKNGDWTLQQLVDYLTIKPCETFNLEYGTLKENGYADLTIIDLDSEQEIKGEDFLSKADNTPFIGYKVYGNPILTMVEGEVKFEGDK
notes: The full-length SaDHOase was expressed and purified following the cloning of the SaDHO gene; His-SUMO with HRV 3C protease site (N, cleaved yes); made in house; host or cells: E. coli BL21 (DE3)

One data set addresses T1, SaDHOase (Staphylococcus aureus, UniProt Q5HGN1).
T1 construct: The full-length SaDHOase was expressed and purified following the cloning of the SaDHO gene; His-SUMO with HRV 3C protease site (N, cleaved yes); made in house; host or cells: E. coli BL21 (DE3)
T1 sequence (Q5HGN1 1-424): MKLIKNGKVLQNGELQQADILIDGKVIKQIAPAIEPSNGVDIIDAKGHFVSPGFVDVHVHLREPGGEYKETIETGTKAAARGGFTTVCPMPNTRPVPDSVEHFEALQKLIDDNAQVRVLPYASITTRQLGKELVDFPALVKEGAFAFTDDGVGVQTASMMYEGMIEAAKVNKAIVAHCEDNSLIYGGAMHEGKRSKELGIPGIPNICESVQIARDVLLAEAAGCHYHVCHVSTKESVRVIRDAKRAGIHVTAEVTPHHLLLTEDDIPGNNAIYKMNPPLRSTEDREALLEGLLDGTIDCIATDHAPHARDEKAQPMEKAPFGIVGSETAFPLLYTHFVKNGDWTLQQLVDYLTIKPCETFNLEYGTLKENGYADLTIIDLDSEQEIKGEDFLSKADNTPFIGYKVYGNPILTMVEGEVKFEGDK
Briefly: SPR direct binding, steady-state affinity KD determination. The following applies: compound alone, immobilized SaDHOase, 25 °C, steady-state affinity fit. The protocol: (§1) The KD was determined using the response units during the equilibration phase of each concentration of the compound. […] In order to determine the mechanism of action, competition SPR studies were done in the presence of high concentration of the substrate Ca-asp (KM = 110 µM) (Figure 3A). Dose-response curve of the tightest binder (5) is shown as an example (Figure 3C).
Purified histidine-tag cleaved DHOase was buffer exchanged to PBS (10 mM phosphate, pH 7.4, 2.7 mM KCl and 137 mM NaCl) for SPR. SPR was performed at 25 °C using a Biacore T200 instrument and a CM5 sensor chip (GE Healthcare). The flow channels were activated by a 1-ethyl-3-(3-dimethylaminopropyl) carbodiimide hydrochloride (EDC)/N-hydroxy succinimide (NHS) mixture. Flow channel 1 was left unmodified as a control. DHOase was diluted in 10 mM sodium acetate (pH 4.0) and immobilized to flow channels 2 and 3 at levels of 8596 RU and 8342 RU, respectively. Fragment solutions at 65 μM and 200 μM were applied to all three channels at a 30 μL/min flow rate. For KD determination, fragment solutions at increasing concentrations (0–400 μM at 2-fold dilution) were applied to all three channels at a 30 μL/min flow rate. The SPR binding buffer was PBS-P supplemented with 2% DMSO and 0.5 mM TCEP. All data was referenced with the blank channel RU values, and the sensorgrams were analyzed using Biacore T200 evaluation software v2.0.3. The response units at each concentration was measured during the equilibration phase for the steady-state affinity fittings.
(§2) For KD determination of analogs, DHOase was immobilized to flow channels 2, 3 and 4 at levels of 10,160 RU, 12,072 RU and 11,358 RU, respectively. 1 mM Ca-asp was additionally added to the binding buffer for a competition SPR. The sensorgrams were analyzed using BiaEvaluation software 2.0.3. All data was referenced to a blank channel RU signal prior to the fitting. The RU difference at each concentration was measured during the binding equilibration phase, and BiaEvaluation software v2.0.3 was used to fit the data to determine KD values. The RU values and corresponding concentrations were plotted using the single hyperbolic Function (1), where y is the response; ymax is the maximum response, and x is the compound concentration. (1) y=ymax·x/(KD+x)
In general, Kd refers to a measure of binding affinity in units of concentration. For `NC1C(=O)Nc2ccc(Br)cc21` (stereo not shown) [Compound 1], the affinity, expressed as Kd, was 205 µM.
Still for that read-out and setting: the figure for `Cn1c(SCC#N)nc2ccccc2c1=O` [Compound 2] is 98 µM; for `Cc1ccccc1CN1CCCN(C)CC1` [Compound 3] it is 156 µM; for `CCNC(=O)N1CCC(N)CC1` [Compound 4] it is 274 µM.
Regarding `Cc1ccc(CN2CCC(O)CC2)cc1` [Compound 5], binding was characterised by a dissociation constant (Kd) of 48 µM.
The same measure, in the same setting: the figure for `OC1CCN(Cc2cccc(Cl)c2Cl)CC1` [Compound 6] is 90 ± 4 µM; for `Cc1ccccc1CN1CCC(O)CC1` [Compound 7] it is 41 ± 18 µM.
`Cc1ccc(C)c(CN2CCC(O)CC2)c1` [Compound 8] had an equilibrium dissociation constant (Kd) of 11 ± 5 µM.
In the case of `CCc1ccc(CN2CCC(O)CC2)cc1` [Compound 9], the Kd amounted to 125 ± 20 µM.
Consider `Cc1cccc(CN2CCC(O)CC2)c1` [Compound 10], for which the KD entry is recorded as “eliminates all bonding” and the Kd is over 400 µM.
For `OC1CCN(Cc2cccc(C(F)(F)F)c2)CC1` [Compound 11], the KD entry is “eliminates all bonding” and the Kd is over 400 µM.
In the case of `OC1CCN(Cc2ccc(C(F)(F)F)cc2)CC1` [Compound 12], binding was characterised by a dissociation constant (Kd) of 48 ± 24 µM.
For the molecule `Cc1ccc(CN2CCCC(O)C2)c(C)c1` (stereo not shown) [Compound 13], the equilibrium dissociation constant (Kd) came to 77 ± 15 µM.
As to `Cc1cccc(CN2CCCC(CO)C2)c1` (stereo not shown) [Compound 14], binding was characterised by a dissociation constant (Kd) of 38 ± 5 µM.

A further data set concerns the target T1, SaDHOase. Briefly: Competition SPR in the presence of 1 mM substrate Ca-asp. Format: binding. The following applies: KD with 1 mM Ca-asp vs compound alone. The protocol: as §1, §2
As for `NC1C(=O)Nc2ccc(Br)cc21` (stereo not shown) [Compound 1], the “Weakening of binding affinity in the presence of 1 mM Ca-asp” value is on record as ~ 2.8 fold.

Still in this data set, the particulars now being: competition SPR, 1 mM Ca-asp.
For `Cn1c(SCC#N)nc2ccccc2c1=O` [Compound 2], the “Effect of substrate Ca-asp on binding (mode of binding)” value is reported as “not affected by Ca-asp presence”.

Substrate in a further data set: NC(=O)N[C@@H](CC(=O)O)C(=O)O
Description: SaDHOase enzyme activity (substrate KM). The settings on record: other: substrate of SaDHOase. Format: biochemical, Staphylococcus aureus. As to the method: The full-length SaDHOase was expressed and purified following the cloning of the SaDHO gene according to previously published methods. Purified SaDHOase enzyme activity was measured and confirmed by two methods, one by observing the production of Ca-asp (reverse reaction) at a UV-Vis absorption of 540 nm (TSC-DAMO method) and the other with continuously monitoring reduction of DHO at 230 nm (Figure 1A). Enzyme rates were calculated using the measured slopes, path length of 0.44 cm and the extinction coefficient (ε) of DHO at 230 nm, 1.17 mM^−1 cm^−1 [14].
The term Km denotes the substrate concentration at which the rate is half of its maximum. B1: the Km is 110 µM.
